Reference: patent US20190227066A1, “COMPOSITIONS AND METHODS FOR DETECTING CANCER CELLS IN A TISSUE SAMPLE” (ISI Life Sciences, Inc., priority 2016, published 2019)

Tested on: SDOV3 cells (an ovarian cancer cell line)
Experiment: Detection of ovarian cancer cells: uptake and intracellular deacylation, imaged by fluorescence microscopy
Format: cell-based
Settings: 50 micromolar, folate-free medium (no FBS), washed with HBSS, 20× immersion objective
Description: Compound 24 and comparative compound A were evaluated for their ability to be absorbed by cancer cells and then, in the case of compound 24, deacylated by intracellular esterases so as to regenerate a fluorescent structure. Specifically, approximately 500,000 SDOV3 cells (an ovarian cancer cell line) were seeded into separate 35 mm culture dishes containing a folate-free growth medium (RPMI+10% FBS). The next day, the medium was replaced with a folate-free medium (no FBS). In one culture dish, the medium was supplemented with 25 micromolar of compound 24; and, in another culture dish, the medium was supplemented with 50 micromolar of comparative compound A. After incubation, the cells were washed with HBSS (Hank's balanced salt solution) to remove unbound compound. The cells were then imaged with a 20× immersion objective on a standard upright fluorescent microscope. […] FIG. 1 illustrates a picture showing the fluorescence generated. Note that only the cancer cells evidenced fluorescence and that the solution remained non-fluorescent. […] This evidences that that composition was not suitable for use in the methods described herein.

Structure (SMILES): Nc1nc2ncc(CNc3ccc(C(=O)NC(CCC(=O)NCCCCCNC(=O)c4cccc(-c5c6ccc(=O)cc-6oc6cc(O)ccc56)c4C(=O)O)C(=O)O)cc3)nc2c(=O)[nH]1 (stereo not shown) [comparative compound A]
- fluorescent signal of the cells: burst of fluorescence but immediately the fluorescence was bleached
